Measurements as given in the NIST ThermoML archive (doi:10.1016/j.fluid.2015.03.023).
± gives the expanded uncertainty stated by the source.

Conditions: Liquid; for mass density: 298.15 K, 101.33 kPa, Vibrating tube method; for vapor or sublimation pressure: 308.15 K, Ebulliometric method (Recirculating still)

| Structure (SMILES) | mass density [kg/m3] | vapor or sublimation pressure [kPa] |
| --- | --- | --- |
| ClCBr [bromochloromethane] | 1921.71 ± 1.1 | 31.05 ± 0.18 |
| ClC(Cl)(Cl)Br [bromotrichloromethane] | 2002.14 ± 1.2 | 8.428 ± 0.1 |
| BrCBr [dibromomethane] | 2478.61 ± 1.8 | 9.932 ± 0.1 |
| CCCCCCC [heptane] | 679.6 ± 0.18 | 9.916 ± 0.1 |
